The source of these data is paper PMC12508156, “Non-canonical dihydrolipoyl transacetylase promotes chemotherapy resistance via mitochondrial tetrahydrofolate signaling” (Nature Communications, 2025).

Several values for one entry are separate records, joined by “and”; a condition that tells them apart may be missing. Identical values can stand only once.

One test deals with KB-3-1cisR cells. Kind of test: Apoptotic cell death (annexin V/PI staining). Particulars: KB-3-1cisR; 5 mM DCA and/or sublethal cisplatin, 48 h; n=1-3: biological replicates. The test is classed as cell-based, human.
For test [1], the system named is cisplatin-resistant cancer cells. Kind of test: Drug sensitivity of cancer cells (apoptosis, cell viability). The test is classed as cell-based, human. Particulars: for sensitization of cancer cells to the agent by impairment of DLAT: KB-3-1cisR and A549cisR, DLAT knockdown vs control, sublethal doses 48 h: 50 μM carboplatin, 10 nM gemcitabine, 10 μM etoposide, 0.5 μM pemetrexed, 3 nM paclitaxel, 1 μM erlotinib; for sensitization of cancer cells to cisplatin treatment: 10 μM inhibitor and sublethal doses of cisplatin, 48 h (Fig. 4e, f). As for the experimental part:
Cell viability was determined using the CellTiter-Glo Luminescent Cell Viability Assay. […] Subsequently, the cells were cultured in complete medium for an additional 10 days, and the resulting colonies were visualized by staining with crystal violet and quantified using ImageJ software. For cell cycle analysis, cells fixed with 70% ethanol were stained with RNase A (100 µg/mL) and propidium iodide (50 μg/ml) for 30 min at 37 °C, and DNA content distribution was measured using flow cytometry (BD Symphony A3) and analyzed with FlowJo software (v10.9). Apoptotic cell death was assessed via FITC-conjugated annexin V and propidium iodide staining.

The test system of a further test is A549cisR cells. Briefly: Apoptotic cell death (annexin V/PI staining). The test is classed as cell-based, human. Particulars: A549cisR; 5 mM DCA and/or sublethal cisplatin, 48 h; n=1-3: biological replicates.
Another test concerns DLAT. Kind of test: DLAT mRNA, DLAT protein and cell viability after elesclomol. The test is classed as cell-based, human. Particulars: increasing doses up to 1 µM for 48 h. As for the experimental part: Elesclomol was administered at increasing doses up to 1 µM for 48 h. The levels of DLAT mRNA (a), DLAT protein (b), and cell viability (c) are shown. Error bars represent the standard deviation (SD) and from 3 independent biological replicates for (a,c). P values were obtained by one-way ANOVA. 1 (1 picture or pasted object on this page, not shown here)

A further test concerns MTHFD1. The following applies: concurrently inhibiting the ubiquitous isozyme MTHFD1; cited from earlier work. An excerpt: Inhibitors targeting components of PDC include a non-selective PDK inhibitor, dichloroacetate (DCA)[39]. However, to the best of our knowledge, no specific inhibitor is available to target non-classical DLAT signaling that is independent of PDC. LY345899 and DS18561882 have been reported to be MTHFD2 inhibitors, and are a folate analog and a tricyclic coumarin-based compound that competitively binds to the substrate binding site[40]–[42]. However, these inhibitors are unselective, concurrently inhibiting the ubiquitous isozyme MTHFD1 and thus posing a potential safety risk; therefore, further ...

For another test, the system named is Bcl-xL. Briefly: Immunoblotting of apoptosis-associated proteins. The following applies: NAC in cisplatin-treated DLAT knockdown cells (Fig. 3h). The test is classed as cell-based, human. As for the experimental part:
Cellular ROS (upper), apoptosis (middle), and cell viability (lower) were measured. […] Mito-TEMPO (10 μM) or flag-tagged catalase was introduced in cisplatin-treated cells. Mitochondrial ROS and cytoplasmic hydrogen peroxide were measured by mitoSOX staining and luminescence detection, respectively. g Immunoblotting of apoptosis-associated proteins. […] Fold changes were obtained by comparing the DLAT knockdown group to the control group. […] P values were determined by two-tailed Student’s t-test (a, i) and one-way ANOVA for the rest. Source data are provided as a Source Data file.
Background: In western blotting, separated proteins are transferred to a membrane and probed.

Test [2] deals with A549cisR and KB-3-1cisR cells. Briefly: Senescence (p21) and autophagy (LC3-I/II, p62) markers, cell cycle. The test is classed as cell-based, human. Particulars: 0.5 mM NAC, 24 h, DLAT shRNA and sublethal cisplatin. As for the experimental part: 1cisR cells were transduced with DLAT-targeting shRNA and treated with sublethal doses of […]
antioxidant N-acetylcysteine (NAC). (a) Western blot analysis of p21 waf1/cip1 expression as a marker of cellular senescence. (b) Western blot analysis of LC3-I/II and p62 as markers of autophagy. (c) Cell cycle distribution was assessed by flow cytometry following propidium iodide staining. (d) Intracellular ROS levels were measured using the H2DCFDA probe. Error bars represent SD and are from 3 independent biological replicates for (c,d). P values were determined by one-way ANOVA.
(1 picture or pasted object on this page, not shown here)

The next test has as its system MT-CO2. Briefly: MT-CO1, MT-CO2, COXIV expression (immunoblot, quantitative RT-PCR). The test is classed as cell-based, human. As for the experimental part:
Apoptosis (top) and cell viability (bottom) were determined. 10-formyl-THF rescues cisplatin-resistant cell growth (c) and MT-CO2 expression (d) in cells lacking K44 MTHFD2 acetylation. Cisplatin-treated cells expressing K44R MTHFD2 were subjected to 10 μM 10-formyl-THF for 24 h followed by annexin V staining, cell viability assay, and assessment of MT-CO1, MT-CO2, and COXIV levels by immunoblotting and quantitative RT-PCR. Cells expressing the acetyl-mimetic mutant form of MTHFD2 K44Q were included for comparison. Effect of MT-CO2 overexpression on cisplatin-resistant cell growth in cells lacking K44 MTHFD2 acetylation (e) or DLAT (f) by K44R MTHFD2 expression or DLAT knockdown, respectively. Data are mean ± SD from 4 independent biological replicates for (d) and 3 for (a–c, e, f). P values were determined by one-way ANOVA. Source data are provided as a Source Data file.
Supplementary Fig. 8: POLRMT is required for 10-formyl-THF-induced MT-CO2 expression in cisplatin-resistant cells. […]
absence of 10-formyl-THF (10 µM) for 24 h. The levels of MT-CO2, mitochondrial transcription factors, and myc-MTHFD2 were assessed by immunoblotting. […] MT-CO2 mRNA and protein levels were assessed by quantitative RT-PCR and immunoblotting, respectively. […] P values were determined by one-way ANOVA. […]

For `O=C(O)C(Cl)Cl` [DCA, dichloroacetate], the Apoptotic death is 2.5 and 4.8 and 4.4 with KB-3-1cisR cells; 9.2 and 6.2 in the test on A549cisR cells. The “survival of cisplatin-resistant cancer cells” value in test [1] (5 mM DCA and cisplatin, 48 h, A549cisR and KB-3-1cisR (Fig. 2e)) is “no significant effect”.

`CC(=O)O[C@H]1C(=O)[C@@]2(C)[C@H]([C@H](OC(=O)c3ccccc3)[C@]3(O)C[C@H](OC(=O)[C@H](O)[C@@H](NC(=O)c4ccccc4)c4ccccc4)C(C)=C1C3(C)C)[C@]1(OC(C)=O)CO[C@@H]1C[C@@H]2O` [paclitaxel]: the “sensitization of cancer cells to the agent by impairment of DLAT” value (“sensitization of cancer cells … of DLAT” below) in test [1] was “sensitized”.

For the molecule `CN(NC(=O)CC(=O)NN(C)C(=S)c1ccccc1)C(=S)c1ccccc1` [elesclomol], the “DLAT levels (gene and protein)” value in the test with DLAT is reported as “did not alter”.

With `N.N.O=C([O-])C1(C(=O)[O-])CCC1.[Pt+2]` [carboplatin], the “sensitization of cancer cells … of DLAT” value in test [1] was “sensitized”.

Regarding `Nc1ccn([C@@H]2O[C@H](CO)[C@@H](O)C2(F)F)c(=O)n1` [gemcitabine], in test [1], the “sensitization of cancer cells … of DLAT” value is given as “sensitized”.

Take `Nc1nc2[nH]cc(CCc3ccc(C(=O)N[C@@H](CCC(=O)O)C(=O)O)cc3)c2c(=O)[nH]1` [pemetrexed]: the “sensitization of cancer cells … of DLAT” value in test [1] is “sensitized”.

Take `Nc1nc2c(c(=O)[nH]1)N1C(=O)N(c3ccc(C(=O)N[C@@H](CCC(=O)O)C(=O)O)cc3)CC1CN2` (stereo partly drawn) [LY345899]: in test [1], the “sensitization of cancer cells to cisplatin treatment” value was “sensitized”. Moreover, the “selectivity versus isozyme MTHFD1” value with MTHFD1 was “unselective”.

For the molecule `CC1(C)CC(NC(=O)C[P+](c2ccccc2)(c2ccccc2)c2ccccc2)CC(C)(C)N1[O]` [mito-TEMPO], the “elevated apoptosis and attenuated cell viability induced by DLAT loss and cisplatin” value in test [1] (Mito-TEMPO 10 μM (Fig. 3e)) is “reversed”.

Regarding `Cc1c(N2CCN(C)[C@@H](C)C2)ccc2c3c(c(=O)oc12)CN(C(=O)c1ccc(NS(C)(=O)=O)c(OC(F)(F)F)c1)CC3` [DS18561882], the “sensitization of cancer cells to cisplatin treatment” value in test [1] is listed as “sensitized”. Further, in the test with MTHFD1, the “selectivity versus isozyme MTHFD1” value is “unselective”.

Take `CC(=O)N[C@@H](CS)C(=O)O` [NAC, N-acetyl-L-cysteine]: the “cisplatin-mediated ROS and apoptosis in DLAT knockdown cells” value in test [1] (NAC 0.5 mM, cisplatin-treated DLAT knockdown cells (Fig. 3d)) is given as “significantly lowered”. In addition, the Bcl-xL expression result in the test with Bcl-xL is reported as “partially restored”. For the same molecule, the “senescence, autophagy, or cell cycle progression” value in test [2] is “did not alter”.

`Cc1ccccc1-c1cc(=O)oc2cc(OC(C)C(=O)N(C)C)ccc12` (stereo not drawn) [IMT1]: the “MT-CO2 expression induced by 10-formyl-THF” value in the test on MT-CO2 (IMT1 5 µM and 10-formyl-THF 10 µM, 24 h (Supplementary Fig. 8b)) is reported as “mitigated”.

On to `Nc1nc2c(c(=O)[nH]1)NC(CN(C=O)c1ccc(C(=O)N[C@@H](CCC(=O)O)C(=O)O)cc1)CN2` (stereo partly drawn) [10-formyl-THF, 10-Formyltetrahydrofolate], for which the “MT-CO2 expression in MTHFD2 K44R cells” value in the test with MT-CO2 (10 μM 10-formyl-THF, 24 h, cisplatin-treated cells (Fig. 6d)) is listed as “restored”. The “attenuated cell viability and elevated apoptosis induced by cisplatin and DLAT loss” value in test [1] (supplementation at physiological concentrations, 48 h, DLAT knockdown cells under sublethal cisplatin (Fig. 6a, b)) is listed as “reversed”.

As to `C#Cc1cccc(Nc2ncnc3cc(OCCOC)c(OCCOC)cc23)c1` [erlotinib], in test [1], the “sensitization of cancer cells … of DLAT” value is recorded as “not”.

As for `COc1cc([C@@H]2c3cc4c(cc3[C@@H](O[C@@H]3O[C@@H]5CO[C@@H](C)O[C@H]5[C@H](O)[C@H]3O)[C@H]3COC(=O)[C@H]23)OCO4)cc(OC)c1O` [etoposide], in test [1], the “sensitization of cancer cells … of DLAT” value is recorded as “sensitized”.
